From US11192891B2, “Diazaspiro ROCK inhibitors” (BRISTOL-MYERS SQUIBB COMPANY, priority 2017, dated 2021)

Target: ROCK2 (Homo sapiens, UniProt O75116)
Experiment: ROCK kinase inhibition assay, FITC peptide substrate, LABCHIP 3000 readout
Type: biochemical
Settings: 5 μM ATP, 1.5 μM peptide substrate
Protocol: Compounds were dissolved in DMSO so that the final concentration of DMSO was <2%, and the reaction was initiated with Rho kinase variants. After incubation, the reaction was terminated by the addition of EDTA and the phosphorylated and non-phosphorylated peptides separated using a LABCHIP® 3000 Reader (Caliper Life Sciences). […] Compounds were tested in dose-response format, and the inhibition of kinase activity was calculated at each concentration of compound.

Sequence of ROCK2 (O75116 whole entry, species assumed): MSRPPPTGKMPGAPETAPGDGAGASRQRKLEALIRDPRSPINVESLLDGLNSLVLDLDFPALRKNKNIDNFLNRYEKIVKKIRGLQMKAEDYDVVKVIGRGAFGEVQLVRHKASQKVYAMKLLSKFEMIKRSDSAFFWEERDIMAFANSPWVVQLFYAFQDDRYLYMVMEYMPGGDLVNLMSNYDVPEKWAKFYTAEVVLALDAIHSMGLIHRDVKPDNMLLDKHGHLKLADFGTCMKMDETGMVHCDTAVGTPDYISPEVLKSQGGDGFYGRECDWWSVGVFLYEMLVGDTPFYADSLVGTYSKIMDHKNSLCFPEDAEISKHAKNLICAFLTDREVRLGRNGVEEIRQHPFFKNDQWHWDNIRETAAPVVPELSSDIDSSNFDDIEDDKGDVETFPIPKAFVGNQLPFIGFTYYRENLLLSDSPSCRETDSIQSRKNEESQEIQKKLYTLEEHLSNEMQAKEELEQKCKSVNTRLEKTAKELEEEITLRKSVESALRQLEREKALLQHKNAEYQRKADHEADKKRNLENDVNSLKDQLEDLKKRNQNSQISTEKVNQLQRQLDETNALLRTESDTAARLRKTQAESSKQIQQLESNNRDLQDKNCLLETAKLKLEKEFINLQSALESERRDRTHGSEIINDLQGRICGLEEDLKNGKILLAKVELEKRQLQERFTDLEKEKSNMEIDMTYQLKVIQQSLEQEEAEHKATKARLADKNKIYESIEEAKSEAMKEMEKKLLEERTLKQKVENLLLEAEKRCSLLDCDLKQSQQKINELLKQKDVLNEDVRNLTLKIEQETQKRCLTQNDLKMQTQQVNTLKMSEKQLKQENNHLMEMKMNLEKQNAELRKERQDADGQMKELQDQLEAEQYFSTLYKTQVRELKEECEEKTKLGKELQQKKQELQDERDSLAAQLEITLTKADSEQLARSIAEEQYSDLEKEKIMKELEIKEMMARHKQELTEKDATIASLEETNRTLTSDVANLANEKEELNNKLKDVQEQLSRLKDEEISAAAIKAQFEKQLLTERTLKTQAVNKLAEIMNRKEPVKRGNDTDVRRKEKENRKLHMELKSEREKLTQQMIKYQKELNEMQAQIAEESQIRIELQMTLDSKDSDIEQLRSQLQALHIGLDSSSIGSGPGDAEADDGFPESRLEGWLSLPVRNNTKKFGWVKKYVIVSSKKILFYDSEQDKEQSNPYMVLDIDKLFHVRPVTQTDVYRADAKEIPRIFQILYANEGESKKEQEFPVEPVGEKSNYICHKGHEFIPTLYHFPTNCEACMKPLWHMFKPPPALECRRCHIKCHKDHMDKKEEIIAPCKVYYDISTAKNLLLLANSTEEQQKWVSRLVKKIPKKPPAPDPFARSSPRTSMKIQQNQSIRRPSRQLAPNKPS

Structure (SMILES)	IC50 [µM]	EC50 [µM]
O=C(c1ccccc1)N1CCC2(CC1)CCN(c1ccc(-c3cn[nH]c3)cc1)C2=O [Example 1, 8-benzoyl-2-[4-(1H-pyrazol-4-yl)phenyl]-2,8-diazaspiro[4.5]decan-1-one]	0.326	–
O=C1N(c2ccc(-c3cn[nH]c3)cc2)CCC12CCN(S(=O)(=O)c1ccccc1)CC2 [Example 2, 8-(benzenesulfonyl)-2-[4-(1H-pyrazol-4-yl)phenyl]-2,8-diazaspiro[4.5]decan-1-one]	0.33	–
COc1ccccc1C(=O)N1CCC2(CC1)CCN(c1ccc(-c3cn[nH]c3)cc1)C2=O [Example 3, 8-(2-methoxybenzoyl)-2-[4-(1H-pyrazol-4-yl)phenyl]-2,8-diazaspiro[4.5]decan-1-one]	0.16	–
COc1ccc(C(=O)N2CCC3(CC2)CCN(c2ccc(-c4cn[nH]c4)cc2)C3=O)cc1 [Example 4, 8-(4-methoxybenzoyl)-2-[4-(1H-pyrazol-4-yl)phenyl]-2,8-diazaspiro[4.5]decan-1-one]	0.021	–
COc1cccc(C(=O)N2CCC3(CC2)CCN(c2ccc(-c4cn[nH]c4)cc2)C3=O)c1 [Example 5, 8-(3-methoxybenzoyl)-2-[4-(1H-pyrazol-4-yl)phenyl]-2,8-diazaspiro[4.5]decan-1-one]	0.085	–
Cn1nc(C(=O)N2CCC3(CC2)CCN(c2ccc(-c4cn[nH]c4)cc2)C3=O)c2ccccc21 [Example 6, 8-(1-methyl-1H-indazole-3-carbonyl)-2-[4-(1H-pyrazol-4-yl)phenyl]-2,8-diazaspiro[4.5]decan-1-one]	0.143	–
O=C(C1CC1)N1CCC2(CC1)CCN(c1ccc(-c3cn[nH]c3)cc1)C2=O [Example 7, 8-cyclopropanecarbonyl-2-[4-(1H-pyrazol-4-yl)phenyl]-2,8-diazaspiro[4.5]decan-1-one]	0.875	–
COc1c(F)cccc1C(=O)N1CCC2(CC1)CCN(c1ccc(-c3cn[nH]c3)cc1)C2=O [Example 8, 8-(3-Fluoro-2-methoxybenzoyl)-2-[4-(1H-pyrazol-4-yl)phenyl]-2,8-diazaspiro[4.5]decan-1-one]	0.112	–
COc1cc(F)ccc1C(=O)N1CCC2(CC1)CCN(c1ccc(-c3cn[nH]c3)cc1)C2=O [Example 9, 8-(4-fluoro-2-methoxybenzoyl)-2-[4-(1H-pyrazol-4-yl)phenyl]-2,8-diazaspiro[4.5]decan-1-one]	0.241	–
O=C(c1ccc(OC(F)(F)F)cc1)N1CCC2(CC1)CCN(c1ccc(-c3cn[nH]c3)cc1)C2=O [Example 10, 2-[4-(1H-pyrazol-4-yl)phenyl]-8-[4-(trifluoromethoxy)benzoyl]-2,8-diazaspiro[4.5]decan-1-one]	0.095	–
COc1ccc(C(=O)N2CCC3(CC2)CCN(c2ccc(-c4cn[nH]c4)cc2)C3=O)cc1F [Example 11, 8-(3-fluoro-4-methoxybenzoyl)-2-[4-(1H-pyrazol-4-yl)phenyl]-2,8-diazaspiro[4.5]decan-1-one]	–	0.016
COc1ccccc1C(=O)N1CCC2(CC1)CCN(c1ccc(-c3cn[nH]c3)c(OC)c1)C2=O [Example 12, 2-[3-methoxy-4-(1H-pyrazol-4-yl)phenyl]-8-(2-methoxybenzoyl)-2,8-diazaspiro[4.5]decan-1-one]	0.054	–
COc1ccc(C(=O)N2CCC3(CC2)CCN(c2ccc(-c4cn[nH]c4)c(OC)c2)C3=O)cc1 [Example 13, 2-[3-methoxy-4-(1H-pyrazol-4-yl)phenyl]-8-(4-methoxybenzoyl)-2,8-diazaspiro[4.5]decan-1-one]	0.008	–
COc1ccc(C(=O)N2CCC3(CC2)CCN(c2ccc(-c4cn[nH]c4)c(OC)c2)C3=O)cc1F [Example 14, 8-(3-fluoro-4-methoxybenzoyl)-2-[3-methoxy-4-(1H-pyrazol-4-yl)phenyl]-2,8-diazaspiro[4.5]decan-1-one]	0.008	–
COc1cc(N2CCC3(CCN(C(=O)c4ccc(CO)cc4)CC3)C2=O)ccc1-c1cn[nH]c1 [Example 15, 8-[4-(hydroxymethyl)benzoyl]-2-[3-methoxy-4-(1H-pyrazol-4-yl)phenyl]-2,8-diazaspiro[4.5]decan-1-one]	0.053	–
COc1ccc(C(=O)N2CCC3(CC2)CCN(c2ccc(-c4cn[nH]c4)c(OC)c2)C3=O)nc1 [Example 16, 2-[3-methoxy-4-(1H-pyrazol-4-yl)phenyl]-8-(5-methoxypyridine-2-carbonyl)-2,8-diazaspiro[4.5]decan-1-one]	0.013	–
COc1ccc(C(=O)N2CCC3(CC2)CCN(c2ccc(-c4cn[nH]c4)c(OC)c2)C3=O)c(F)c1 [Example 17, 8-(2-Fluoro-4-methoxybenzoyl)-2-[3-methoxy-4-(1H-pyrazol-4-yl)phenyl]-2,8-diazaspiro[4.5]decan-1-one]	0.008	–
COc1cc(N2CCC3(CCN(C(=O)c4ccc(Cl)cc4)CC3)C2=O)ccc1-c1cn[nH]c1 [Example 18, 8-(4-Chlorobenzoyl)-2-[3-methoxy-4-(1H-pyrazol-4-yl)phenyl]-2,8-diazaspiro[4.5]decan-1-one]	0.062	–
COc1cc(N2CCC3(CCN(C(=O)c4ccc(C5CC5)cc4)CC3)C2=O)ccc1-c1cn[nH]c1 [Example 19, 8-(4-cyclopropylbenzoyl)-2-[3-methoxy-4-(1H-pyrazol-4-yl)phenyl]-2,8-diazaspiro[4.5]decan-1-one]	0.01	–
CCc1ccc(C(=O)N2CCC3(CC2)CCN(c2ccc(-c4cn[nH]c4)c(OC)c2)C3=O)cc1 [Example 20, 8-(4-ethylbenzoyl)-2-[3-methoxy-4-(1H-pyrazol-4-yl)phenyl]-2,8-diazaspiro[4.5]decan-1-one]	0.05	–
COc1cc(N2CCC3(CCN(C(=O)c4ccc(N(C)C)cc4)CC3)C2=O)ccc1-c1cn[nH]c1 [Example 21, 8-[4-(dimethylamino)benzoyl]-2-[3-methoxy-4-(1H-pyrazol-4-yl)phenyl]-2,8-diazaspiro[4.5]decan-1-one]	0.016	–
COc1ccc(C(=O)N2CCC3(CC2)CCN(c2ccc(-c4cn[nH]c4)c(OC)c2)C3=O)cc1Cl [Example 22, 8-(3-chloro-4-methoxybenzoyl)-2-[3-methoxy-4-(1H-pyrazol-4-yl)phenyl]-2,8-diazaspiro[4.5]decan-1-one]	0.006	–
COc1cc(N2CCC3(CCN(C(=O)c4ccc(C(N)=O)cc4)CC3)C2=O)ccc1-c1cn[nH]c1 [Example 23, 4-{2-[3-methoxy-4-(1H-pyrazol-4-yl)phenyl]-1-oxo-2,8-diazaspiro[4.5]decane-8-carbonyl}benzamide]	0.036	–
COC(=O)c1ccc(C(=O)N2CCC3(CC2)CCN(c2ccc(-c4cn[nH]c4)c(OC)c2)C3=O)cc1 [Example 24, methyl 4-{2-[3-methoxy-4-(1H-pyrazol-4-yl)phenyl]-1-oxo-2,8-diazaspiro[4.5]decane-8-carbonyl}benzoate]	0.023	–
COc1cc(N2CCC3(CCN(C(=O)c4ccc(C(=O)O)cc4)CC3)C2=O)ccc1-c1cn[nH]c1 [Example 25, 4-{2-[3-methoxy-4-(1H-pyrazol-4-yl)phenyl]-1-oxo-2,8-diazaspiro[4.5]decane-8-carbonyl}benzoic acid]	1.43	–
COc1cc(N2CCC3(CCN(C(=O)c4ccc(C(=O)NCC5CC5)cc4)CC3)C2=O)ccc1-c1cn[nH]c1 [Example 26, N-(cyclopropylmethyl)-4-{2-[3-methoxy-4-(1H-pyrazol-4-yl)phenyl]-1-oxo-2,8-diazaspiro[4.5]decane-8-carbonyl}benzamide]	0.119	–
